The text below walks through data of patent publication US20080031817A1, “Inhibition Of Superoxide Dismutase By Tetrathiomolybdate: Identification Of New Anti-Angiogenic And Antitumor Agents” (priority 2004, published 2008).

Assay [1] has as its target T1, bovine SOD1 (Bos taurus, UniProt P00442). Nature of the assay: CuZn SOD (SOD1) activity assay, xanthine/xanthine oxidase with WST-1. In kind it is biochemical. To be noted: for inhibition of SOD1 activity in vitro: in vitro enzyme assay, WST-1. Here is the method: SOD1 was assayed with a commercially available kit (Dojindo) based on the xanthine/xanthine oxidase superoxide generation reaction coupled to a water soluble tetrazolium salt, WST-1.
Standard curves (0-13 nM) of bovine SOD were generated using the SOD1 assay described above in the presence of increasing concentrations of ATN-224. Appropriate blanks comprising ATN-224 in the absence of SOD1 enzyme were also generated. The inhibition of SOD1 activity was calculated from these standard curves.

For assay [2], the system named is superoxide anions in HUVECs. The settings on record: 72 hrs, ATN-224 at IC50, 5 μM DHE, vs control HUVECs. Here is the method: HUVECs were plated in 6 well cluster plates on 0.1% gelatin at 6000 cells/well in M200/2% FCS. Cells were incubated at 37° C./5% CO2 for 16 hrs. Cells were rinsed, and ATN-224 was added in medium supplemented with 1 ng/ml FGF-2. Cells were incubated at 37 ° for 72 hours, rinsed in PBS, and DHE (Molecular probes) was added (5 μM) to the cells. Cells were then visualized microscopically using a fluorescent lamp and a red filter.

Assay [3] addresses T1, bovine SOD1. The assay is described as follows: Removal of copper from SOD1 (gel filtration, ICP-MS). The class given is biochemical. On the procedure:
[…] The protein was then purified by gel filtration chromatography. The sample was then analyzed for molybdenum content and copper content by ICP-MS.
In general terms: In gel filtration, larger molecules generally elute earlier.

Another assay has as its target T2, intracellular CuZnSOD (Homo sapiens, UniProt P00441).
T2 construct: Lysates were assayed for SOD1 activity as described above; endogenous in cells; host or cells: HUVEC
The assay is described as follows: Intracellular CuZnSOD activity in HUVECs. The class given is cell-based. Here is the method:
HUVECs were plated on 0.1% gelatin at 2-4×10^6 cells in T-25 flasks in M200 medium with 2% FCS. Cells were incubated at 37° C./5% CO2 for 16 hrs. Cells were rinsed with M200/2% FCS and incubated for a further 2 hrs in medium to which varying concentration of ATN-224 and FGF-2 (at 1 ng/ml) were added. At various intervals, medium was removed and the cells lysed in lysis buffer. Lysates were assayed for SOD1 activity as described above. Lysates were also analyzed by Western blot using a SOD1-specific polyclonal antibody (Biodesign, ME). These experiments were repeated in increasing concentrations of serum.

Another assay has as its system angiogenesis. The assay is described as follows: Matrigel plug assay (hemoglobin). The settings on record: mice. In kind it is in vivo. Here is the method:
This assay is performed essentially as described by Passaniti et al. (Lab Invest. 67:519-528 (1992). Ice-cold Matrigel® (e.g., 500 μL) (Collaborative Biomedical Products, Inc., Bedford, Mass.) is mixed with heparin (e.g., 50 μg/ml), FGF-2 (e.g., 400 ng/ml) and the compound to be tested. In some assays, bFGF may be substituted with tumor cells as the angiogenic stimulus. The Matrigel® mixture is injected subcutaneously into 4-8 week-old athymic nude mice at sites near the abdominal midline, preferably 3 injections per mouse. The injected Matrigel® forms a palpable solid gel. Injection sites are chosen such that each animal receives a positive control plug (such as FGF-2+heparin), a negative control plug (e.g., buffer+heparin) and a plug that includes the compound being tested for its effect on angiogenesis, e.g., (FGF-2+heparin+compound). […] Hemoglobin (Hb) levels are determined using Drabkin's solution (e.g., obtained from Sigma) according to the manufacturers' instructions. […] The amount of fluorescence in the dispersed plug, determined fluorimetrically, also serves as a measure of angiogenesis in the plug. […]
Matrigel® ([…]) on ice was mixed with heparin (50 mg/ml), FGF-2 (800 ng/ml), VEGF (300 ng/ml) and the test compound. […] Hemoglobin levels in the plugs were determined using Drabkin's solution according to the manufacturers' instructions (Sigma Chemicals). […]

The next assay deals with T3, SOD1 (Homo sapiens, UniProt P00441).
T3 construct: from tissue
Nature of the assay: SOD1 activity in treated tumors. The class given is in vivo. The settings on record: SOD1 protein unchanged (Western blot).

For assay [4] the following is noted: Zn^2+, Fe^2+, Ca^2+, Mn^2+, Mg^2+; standard binding assays.
Assay [5] has as its system intracellular copper levels.
Another assay deals with HUVEC. Nature of the assay: HUVEC proliferation assay (acid phosphatase method). In kind it is cell-based, human. Here is the method: Alternatively, cells at a density of 6000/well are plated in wells of 48 well microplates on 0.1% gelatin in 200 μl M200/2% FCS, and incubated at 37° C. in a humid atmosphere of 5% CO2 for 16 hrs. Compounds to be tested are diluted in M200 supplemented with 2% FCS and 1 ng/ml FGF-2 and added to the cells. Positive control contain no compound, and negative controls contain no compound or FGF-2. Cells are incubated at 37° C./5% CO2 for 72 hours. Cells are enumerated indirectly using the acid phosphatase method (Connolly, D T et al., 1986, Anal. Biochem 152:136-140). After removal of growth medium, the cells are lysed in buffer containing Triton X-100. The chromogenic substrate for acid phosphatase, p-nitrophenyl phosphate is added at a concentration of 100 mM. After incubation for 75 min. at 37° C., the reaction is stopped with 1N NaOH, and color is measured using a multiwell microplate reader.
Cells at a density of 6000/well were plated in wells of 48 well microplates on 0.1% gelatin in 200 μl M200/2% FCS, and were incubated at 37° C. in a humid atmosphere of 5% CO2 for 16 hrs. Compounds to be tested were diluted in M200 supplemented with 2% FCS and 1 ng/ml FGF-2 and added to the cells. Positive control contained no compound, and negative controls contained no compound or FGF-2. Cells were incubated at 37° C./5% CO2 for 72 hours. Cells were enumerated indirectly using the acid phosphatase method. After removal of growth medium, the cells were lysed in buffer containing the detergent Triton X-100. The chromogenic substrate for acid phosphatase, p-nitrophenyl phosphate was added at a concentration of 100 mM. After incubation for 75 min. at 37° C., the reaction was stopped with 1N NaOH and color was measured using a multiwell microplate reader.
HUVEC proliferation assays were performed as described. Increasing concentrations of ATN-224 was added to cultures in the presence or absence of 100 μM MnTBAP (AG Scientific, San Diego). Cell number was estimated using the acid phosphatase method described above.

Another assay concerns the target T4, extracellular SOD (Homo sapiens, UniProt P08294).
T4 construct: DS administered to alcoholics reduced by 20% extracellular SOD activity
T4 sequence (P08294 19-240): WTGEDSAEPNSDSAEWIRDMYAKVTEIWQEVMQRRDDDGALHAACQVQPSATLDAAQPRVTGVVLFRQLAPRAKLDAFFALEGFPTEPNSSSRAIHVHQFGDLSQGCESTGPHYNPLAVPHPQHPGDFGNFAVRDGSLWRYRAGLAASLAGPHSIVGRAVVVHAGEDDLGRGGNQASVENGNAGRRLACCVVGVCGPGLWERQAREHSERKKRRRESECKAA
The settings on record: alcoholics, compared to untreated alcoholics and healthy control; cited from earlier work.

T1 sequence (P00442 whole entry): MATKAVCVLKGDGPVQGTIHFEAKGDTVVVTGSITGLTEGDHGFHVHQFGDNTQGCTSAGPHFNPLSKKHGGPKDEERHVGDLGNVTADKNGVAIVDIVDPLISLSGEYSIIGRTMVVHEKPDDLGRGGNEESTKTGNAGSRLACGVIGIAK
T2 sequence (P00441 whole entry): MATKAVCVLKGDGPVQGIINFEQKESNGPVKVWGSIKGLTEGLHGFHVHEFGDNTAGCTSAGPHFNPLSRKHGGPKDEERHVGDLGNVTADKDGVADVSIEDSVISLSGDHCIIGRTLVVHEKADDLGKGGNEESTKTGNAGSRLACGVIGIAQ
T3 sequence (P00441 whole entry, species assumed): as the sequence (P00441 whole entry) above

With `O=C1CC(c2cccs2)Sc2ccccc2N1` (stereo not drawn) [ATN 722], at bovine SOD1 [1], the “inhibition of SOD1 activity in vitro” value is recorded as “inhibited SOD1 activity”.
For `C[N+](C)(C)CCO.C[N+](C)(C)CCO.[SH-].[SH-].[S]=[Mo]=[S]` [ATN-224, choline tetrathiomolybdate], the “DHE fluorescence (superoxide)” value in assay [2] is “strong fluorescence”. Besides, in the assay with IL-8 expression, the IL-8 expression entry is on record as “down-regulates IL-8 expression”. On bovine SOD1 [3], the “binding to CuZnSOD (Mo content of purified protein)” value was “did not bind to CuZnSOD” and the “copper content of CuZnSOD” value is listed as “appreciable loss of copper”. The “inhibition of SOD1 activity in vitro” value at bovine SOD1 [1] is recorded as “inhibited this reaction”. Besides, the “inhibition of generation of superoxide ions in the assay” value against bovine SOD1 [1] (xanthine/xanthine oxidase) is “did not act by inhibiting generation of superoxide ions”. Further, at intracellular CuZnSOD (HUVEC lysates), the “level of CuZnSOD protein (Western blot)” value is recorded as “did not affect the level of CuZnSOD protein”. Besides, at intracellular CuZnSOD (HUVECs, 3 concentrations, up to 24 hours), the “inhibition of intracellular CuZnSOD” value is “dose and time dependent inhibition”. In addition, the “effect of serum on intracellular CuZnSOD inhibition” value on intracellular CuZnSOD (increasing concentrations of serum) is “unaffected by the presence of serum”. Also, in the assay on angiogenesis (compound in plug, 5 days), the “angiogenesis in Matrigel plugs” value was “inhibited”. Also, the “inhibition of aldehyde dehydrogenase” value in the assay with aldehyde dehydrogenase is reported as “does not inhibit”. In addition, the “SOD1 enzymatic activity in treated tumors” value on SOD1 is on record as “reduced SOD1 enzymatic activity”. For the same molecule, the “binding to other metal cations” value in [4] was “does not bind detectably”. In assay [5], the intracellular copper levels entry was “does not increase intracellular copper levels”. The IC50 in the assay with HUVEC (FGF-2 driven, 72 hours, read-out: IC50, inhibition of HUVEC proliferation) lay within 1000 to 2000 nM. The “inhibition of FGF-2 driven proliferation with copper added” value in the assay with HUVEC (equimolar concentrations of copper added) is “completely abrogated”.
Regarding `C[N+](C)(C)CCO.C[N+](C)(C)CCO.[S]=[W](=[S])([S-])[S-]` [ATN-427, choline tetrathiotungstate], the “inhibition of SOD1 activity in vitro” value at bovine SOD1 [1] is listed as “inhibited SOD1 activity”; at bovine SOD1 [1] (listed as choline tetrathiotungstate) it was “effective inhibitor of SOD1 activity”.
`c1csc(CSc2nc3ccccc3s2)c1` [ATN-714]: the “inhibition of SOD1 activity in vitro” value against bovine SOD1 [1] is “inhibited SOD1 activity”.
Turning to `CN(C)C1=NCC(CSC(=N)N)S1` (stereo not drawn) [ATN-719], on bovine SOD1 [1], the “inhibition of SOD1 activity in vitro” value is “inhibited SOD1 activity”.
As to `CCN(CC)C(=S)SSC(=S)N(CC)CC` [DS, Tetraethylthiuram disulfide], on extracellular SOD, the “reduction of extracellular SOD activity” value was 20%.
With `O=C(O)c1ccc(/C2=C3\C=CC(=N3)/C(c3ccc(C(=O)O)cc3)=c3/cc/c4[n]3[Mn]([Cl])[n]3c2ccc3/C(c2ccc(C(=O)O)cc2)=C2/C=CC(=N2)\C=4c2ccc(C(=O)O)cc2)cc1` [MnTBAP, reference compound], the “reversal of ATN-224 inhibition of angiogenesis” value in the assay on angiogenesis (MnTBAP with ATN-224 in plug) is on record as “abrogated most of this inhibition”. In addition, the “reversal of ATN-224 inhibition of cell proliferation” value with HUVEC (100 μM MnTBAP with ATN-224) is “abrogate most of the inhibition”.
